A short description of series [1]: Stability in Simulated Intestinal Fluid (SIF). Type of series: in vitro ADME. The settings on record: 37° C., 0.01 mg/mL. The protocol: (§1) Stability in Simulated Gastric Fluid (SGF) and Simulated Intestinal Fluid (SIF). Procedure from Baudy et. al. (J. Med. Chem. 2009, 52, 771-778) used. The physiological stability of prodrugs was determined by examining the stability of the compound in SGF, and SIF at 37° C. The compounds were prepared in a 9:1 mixture of the appropriate test component (SGF, SIF) and acetonitrile to a final concentration of 0.01 mg/mL. The samples were thoroughly mixed and maintained at 37° C. Each sample was injected consecutively onto an Agilent 1100 system (Luna C18, 3 μm, 50 mm×3 mm; 1 mL/min; mobile phase of 0.1% trifluoroacetic acid in water/0.1% trifluoroacetic acid in acetonitrile) after a 3 h period. The percent remaining of prodrug was calculated by comparing the area of prodrug compound versus riluzole generated. The identities of the parent compounds and conversion products were confirmed by LC/MS.

Series [2] can be described thus: Metabolic stability in pooled human liver microsomes. The settings on record: human liver microsomes 0.5 mg/mL, 1 uM, 37° C., NADPH. It counts as in vitro ADME. The protocol:
(§2) Metabolic Stability: In vitro metabolic stability was determined in pooled mouse or human liver microsomes (BD Gentest) at a protein concentration of 0.5 mg/mL in reaction buffer (100 mM KH2PO4, pH 7.4 and 12 mM MgCl2). Each drug candidate was added to a final concentration of 1 uM. This mixture was pre-warmed to 37° C. for 10 minutes prior to starting the reaction with the addition of β-Nicotinamide adenine dinucleotide 2′-phosphate reduced (NADPH) to a final concentration of 1 mM. A parallel incubation lacking NADPH served as the control. After incubation for 30 min at 37° C., the reactions were quenched by the addition of acetonitrile containing 0.1% formic acid and internal standard, vortex mixed for 2 minutes and centrifuged at 4000 rpm for 10 minutes to pellet the precipitated protein. The resulting supernatant containing the drug candidate and its potential metabolites was diluted 5-fold with water containing 0.1% formic acid and submitted to LC-MS/MS analysis. […]
(§3) LC-MS/MS Analysis: An aliquot from each incubation was analyzed by LC-MS/MS with SRM detection in the positive ionization mode using an ABSciex API 5500 QTrap Mass Spectrometer interfaced via the ABSciex Turbo V IonSpray source (ESI) to an Eksigent ExpressHT LC system. […] A fast gradient, from 15 to 85% organic in 2.5 minutes, with run time of 5.0 minutes, and flow rate of 50 ul/min was utilized. Peak areas were integrated using MultiQuant v2.0 software from ABSciex.

Series [3] is described as follows: Plasma stability in fresh human plasma. It counts as in vitro ADME. The settings on record: 1 uM, 37° C. The protocol:
(§4) Plasma Stability: Assessment of plasma stability was carried out by individual incubations of drug candidates in fresh mouse or human control plasma at a concentration of 1 uM for 1 hour at 37° C. After which, the samples were de-proteinized by addition of 2 volumes of acetonitrile containing 0.1% formic acid and internal standard, vortex mixed for 2 minutes and centrifuged at 4000 rpm for 10 minutes to pellet precipitated protein. The resulting supernatant containing the drug candidates was diluted 5-fold with water containing 0.1% formic acid and submitted to LC-MS/MS analysis. All determinations were done in triplicate. […]
as §3

Series [4] in a line: Stability in Simulated Gastric Fluid (SGF). It counts as in vitro ADME. The settings on record: 37° C., 0.01 mg/mL. The protocol: as §1
Series [5] is described as follows: Metabolic stability in pooled mouse liver microsomes. It counts as in vitro ADME. The settings on record: mouse liver microsomes 0.5 mg/mL, 1 uM, 37° C., NADPH. The procedure:
as §2, §3
On the technique in general: Liver microsomes are vesicles of endoplasmic reticulum, rich in cytochrome P450 enzymes.

Series [6] can be described thus: Plasma stability in fresh mouse plasma. It counts as in vitro ADME. The settings on record: 1 uM, 37° C. The procedure:
as §4, §3

The test system of series [7] is Stage III and IV melanoma. The settings on record: 14 days of treatment; cited from earlier work.

Molecules are shown by their SMILES. “Also recorded” adds a separate entry of the source.

Regarding `O=C(CCC(=O)Nc1nc2ccc(OC(F)(F)F)cc2s1)NCc1cccnc1` [Cpd 23, N-Pyridin-3-ylmethyl-N′-(6-trifluoromethoxy-benzothiazol-2-yl)-succinamide], the “SIF (3 hours): percent of prodrug metabolized to riluzole” value (“SIF (3 hours): percent” below) in series [1] was 10%. Also, in series [2], the “Metabolic Stability human (30 minutes): percent of prodrug metabolized to riluzole” value is on record as 4%. The “Plasma Stability Human (1 hour): percent of prodrug metabolized to riluzole” value (“Plasma Stability Human (1 hour): percent” below) in series [3] is given as 0%. In addition, the “SGF (3 hours): percent of prodrug metabolized to riluzole” value (from here on “SGF (3 hours): percent”) in series [4] is on record as 0%. For the same compound, the “Metabolic Stability mouse (30 minutes): percent of prodrug metabolized to riluzole” value in series [5] is 0%. Also, in series [6], the “Plasma Stability mouse (1 hour): percent of prodrug metabolized to riluzole” value (“Plasma Stability mouse (1 hour): percent” for short) is recorded as 26%.

Turning to `CNCCCCC(=O)Nc1nc2ccc(OC(F)(F)F)cc2s1` [Cpd 25, 5-Methylamino-pentanoic acid (6-trifluoromethoxy-benzothiazol-2-yl)-amide], the “SIF (3 hours): percent” value in series [1] was 0%. In addition, in series [2], the “Metabolic Stability human (30 minutes): percent of prodrug metabolized to riluzole” value is given as 0%. Further, the “Plasma Stability Human (1 hour): percent” value in series [3] is given as 0%. In series [4], the “SGF (3 hours): percent” value is recorded as 0%. The “Metabolic Stability mouse (30 minutes): percent of prodrug metabolized to riluzole” value in series [5] is on record as 78%. Moreover, the “Plasma Stability mouse (1 hour): percent” value in series [6] was 0%.

As for `NCCCCC(=O)Nc1nc2ccc(OC(F)(F)F)cc2s1` [Cpd 26, 5-Amino-pentanoic acid (6-trifluoromethoxy-benzothiazol-2-yl)-amide], the “SIF (3 hours): percent” value in series [1] was 0%. The “Metabolic Stability human (30 minutes): percent of prodrug metabolized to riluzole” value in series [2] came out at 19%. For the same compound, in series [3], the “Plasma Stability Human (1 hour): percent” value amounted to 5%. The “SGF (3 hours): percent” value in series [4] was 0%. For the same compound, in series [5], the “Metabolic Stability mouse (30 minutes): percent of prodrug metabolized to riluzole” value worked out at 66%. Further, the “Plasma Stability mouse (1 hour): percent” value in series [6] was found to be 0%.

Regarding `O=C(Cc1ccccc1[N+](=O)[O-])Nc1nc2ccc(OC(F)(F)F)cc2s1` [Cpd 27, 2-(2-Nitro-phenyl)-N-(6-trifluoromethoxy-benzothiazol-2-yl)-acetamide], the “SIF (3 hours): percent” value in series [1] is 0%. Also, the “Metabolic Stability human (30 minutes): percent of prodrug metabolized to riluzole” value in series [2] came to 22%. For the same compound, in series [3], the “Plasma Stability Human (1 hour): percent” value worked out at 13%. The “SGF (3 hours): percent” value in series [4] was 0%. Moreover, the “Metabolic Stability mouse (30 minutes): percent of prodrug metabolized to riluzole” value in series [5] worked out at 59%. Further, in series [6], the “Plasma Stability mouse (1 hour): percent” value was determined as 0%.

For `Nc1ccc(C(=O)Nc2nc3ccc(OC(F)(F)F)cc3s2)cc1` [Cpd 28, 4-Amino-N-(6-trifluoromethoxy-benzothiazol-2-yl)-benzamide], the “SIF (3 hours): percent” value in series [1] is listed as 0%. The “Metabolic Stability human (30 minutes): percent of prodrug metabolized to riluzole” value in series [2] was 80%. The “Plasma Stability Human (1 hour): percent” value in series [3] is on record as 0%. For the same compound, the “SGF (3 hours): percent” value in series [4] is on record as 0%. In addition, the “Metabolic Stability mouse (30 minutes): percent of prodrug metabolized to riluzole” value in series [5] came to 24%. In addition, the “Plasma Stability mouse (1 hour): percent” value in series [6] is 0%.

As for `Nc1nc2ccc(OC(F)(F)F)cc2s1` [riluzole, 6-(trifluoromethoxy)-1,3-benzothiazol-2-amine], in series [7], the “patients with clinical or radiologic evidence of tumor response” value was “four of twelve; also recorded: four of 12”.

The record behind these values is US12172974B2 (Biohaven Pharmaceutical Holding Company Ltd., priority 2012, dated 2024).
